Data on eight molecules can be found in PMC5498548.

Converted amounts (≈) assume the structure as drawn. “And” between values parts separate entries of the source, which are not always exact repeats. Equal values may be shown once. “Also recorded” adds a separate entry of the source. Where a name gives a salt, the structure may show the parent alone. Read-outs that look alike come from different tables or passages of the source. Where only a bound is given, the exact number is not on record here.

The subject of one data set is M. tuberculosis. Put plainly: Resazurin microtiter assay (REMA) whole cell MIC90 in broth culture. Type of data set: cell-based, Mycobacterium tuberculosis. The following applies: MB7H9 medium, Mean ± S.E., three experiments; for MIC90: Mycobacterium tuberculosis, read-out: MIC90 of compounds against M. tuberculosis. Background: Alamar Blue is a resazurin reagent that responds to reducing activity.

Data set [1] has as its target T1, IdeR (Mycobacterium tuberculosis, UniProt P9WMH1). In words: biochemical. The settings on record: EMSA. (In EMSA bound probe runs differently from free probe, usually more slowly.)
The target in data set [2] is T1, IdeR. Put plainly: EMSA competition experiments with increasing labeled DNA. Type of data set: biochemical. The settings on record: DNA 0.8 pmoles to 12.8 pmoles.
Data set [3] addresses T1, IdeR. Put plainly: EMSA with Fe2+ instead of Ni2+: effect of iron on inhibition. Type of data set: biochemical. The following applies: 100 µM Fe2+, 100 µg/ml compound.
Data set [4] deals with intracellular M. tuberculosis H37Rv. In words: Inhibition of intracellular M. tuberculosis in PMA activated THP-1 cells, spotting on agar plates. The class given is cell-based, Mycobacterium tuberculosis.
Data set [5] relates to HepG2 (Human hepatocellular carcinoma cell line). In words: Cytotoxicity by REMA in HepG2. The following applies: Homo sapiens, HepG2, 1-200 µg/ml, read-out: Inhibition in HepG2 (IC50 in µg/ml). Type of data set: cell-based. The protocol:
(§1) The cytotoxicity of the compounds was determined by employing REMA using various mammalian cell lines such as THP-1 (human monocytic macrophage cell line), HEK (Human Embryonic Kidney cell line), MDCK (Madine darby canine kidney cell line) and HepG2 (Human hepatocellular carcinoma cell line). 1 × 10^4 cells/well were employed in a sterilized 96-well plate containing serial dilutions of compounds ranging from 1 µg/ml to 200 µg/ml concentration, in their respective media (RPMI for THP-1, DMEM for HEK and HepG2 and MEM for MDCK) with 10% fetal bovine serum and Antibiotic-Antimycotic mix (Invitrogen Corporation, Carlsbad, California, USA). IC50 is defined as the concentration of the compound that causes 50% reduction in the fluorescence intensity indicating 50% viable cells. IC50 values were determined from the results of at least two independent tests and Mean ± S.E.M was calculated from the inhibition curve using GraphPad Prism 5.

Data set [6] deals with THP-1 (human monocytic macrophage cell line). In words: Cytotoxicity by REMA in THP-1. The following applies: for IC50: Homo sapiens, THP-1, 1-200 µg/ml, read-out: Inhibition in THP1 (IC50 in µg/ml). Type of data set: cell-based. The method, then: as §1
For data set [7], the system named is HEK (Human Embryonic Kidney cell line). In words: Cytotoxicity by REMA in HEK. The class given is cell-based. The following applies: Homo sapiens, 1-200 µg/ml, read-out: Inhibition in HEK (IC50 in µg/ml). The method, then:
as §1

The test system of data set [8] is MDCK (Madine darby canine kidney cell line). In words: Cytotoxicity by REMA in MDCK. Type of data set: cell-based. The following applies: Canis lupus familiaris, MDCK, 1-200 µg/ml, read-out: Inhibition in MDCK (IC50 in µg/ml). The method, then: as §1
In data set [9] the target is T2, IdeR (Mycobacterium tuberculosis, UniProt P9WMH1 1-230).
T2 sequence: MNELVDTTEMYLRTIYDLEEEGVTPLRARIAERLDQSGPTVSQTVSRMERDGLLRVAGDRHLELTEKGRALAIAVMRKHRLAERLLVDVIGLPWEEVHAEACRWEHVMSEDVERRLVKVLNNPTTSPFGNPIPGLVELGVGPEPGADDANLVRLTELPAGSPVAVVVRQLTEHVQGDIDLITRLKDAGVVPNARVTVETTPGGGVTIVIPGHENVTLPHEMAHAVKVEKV
Put plainly: EMSA. The following applies: protein: recombinant; tags: vector pET28c NdeI/HindIII (His-tag, Ni-NTA purified); C-terminal streptactin tag from reverse primer; chain copies: 4; label: Cy5 at 5' end of both strands; blunt (only sense strand printed).

Where [10] appears, read: 0.35 µg IdeR, 0.8 picomoles labeled DNA, 200 µM NiSO4, inhibitor 0.4-100 µg/ml, read-out: IC50 (µg/ml) (converted).
Setting [11] is: same values given in µM, read-out: IC50.
Setting [12] is: at 500 μg/ml (highest concentration tested), infected THP-1, 5 days.
[13] abbreviates: at concentrations lower than 500 μg/ml (100 to 400 μg/ml), infected THP-1.

In the case of `Nc1ccc(-c2nc3ccccc3s2)cc1S(=O)(=O)O` [Compound I-8, 2amino-5-(1,3-benzothiazol-2-yl) benzene sulfonic acid ammoniate], the “MIC90 of compounds against M. tuberculosis (µg/ml)” value with M. tuberculosis is reported as “no inhibition”. Further, the IC50 at IdeR [1] (setting [10]) was ≤ 81.6 µM and 78 µM; on IdeR [1] (setting [11]), 74 µM. In addition, at IdeR [2], the “mode of inhibition in competition with DNA” value (“mode of inhibition” below) was “competing with DNA”.
As for `O=C(O)C1(Cc2ccc(O)c(O)c2)NCCS1` (stereo not shown) [Compound I-20, 2-(3,4-dihydroxybenzyl)-1,3-thiazolidine-2-carboxylic acid], the IC50 at IdeR [1] (setting [10]) and at IdeR [1] (setting [11]) was 9.56 µM in each case. Moreover, at IdeR [3], the “effect of iron on the inhibitory potential” value is “no effect”. In addition, the “mode of inhibition” value on IdeR [2] is listed as “competing with DNA”.
Broadly, the MIC90 is an inhibitory concentration at the 90% level, which refers to growth in some studies and to a panel of isolates in others. With `Cc1nn(-c2ccccc2)c2c1N=C(C(=O)O)CC(c1ccccc1)=N2` [Compound I-33, 3-methyl-1,7-diphenyl-1,6-dihydropyrazolo[3,4-b][1,4]diazepine-5-carboxylic acid], the figures for the “growth of intracellular M. tuberculosis on agar plates” value (“growth” below) in data set [4] (setting [12]) and in data set [4] (setting [13]) were “negligible inhibition” and “unaffected”, respectively. Moreover, in the data set with M. tuberculosis, the “MIC90 of compounds against M. tuberculosis” value is 93 µg/mL and 93.3 ± 8.16 µg/mL. Moreover, the MIC90 with M. tuberculosis was 93.3 µg/mL (≈ 271 µM). For the same molecule, the IC50 in data set [5] is over 200 µg/mL; in data set [6], over 200 µg/mL; on IdeR [1] (setting [10]), 63 µM and 63.1 µM; at IdeR [1] (setting [11]), 63 µM; in data set [7], over 200 µg/mL; in [8] it was over 200 µg/mL.
Regarding `Cc1ccc(C2=Nc3c(c(C)nn3-c3ccccc3)N=C(C(=O)O)C2)cc1` [Compound I-34, 3-methyl-7-(4-methylphenyl)-1-phenyl-1,6-dihydropyrazolo[3,4-b][1,4]diazepine-5-carboxylic acid], the “growth” value was “negligible inhibition; also recorded: unable to limit the growth of intracellular bacteria” in data set [4] (setting [12]) and “unaffected” in data set [4] (setting [13]). Also, the “MIC90 of compounds against M. tuberculosis” value in the data set on M. tuberculosis was 86 µg/mL and 86.6 ± 7.8 µg/mL. Also, the MIC90 in the data set with M. tuberculosis was 86.6 µg/mL (≈ 242 µM). Besides, the IC50 in [5] is over 200 µg/mL; in [6], over 200 µg/mL; on IdeR [1] (setting [10]) it was ≤ 69.8 µM and 17 µM and 16.7 µM; on IdeR [1] (setting [11]) it was 17 µM; in data set [7], over 200 µg/mL; in [8], over 200 µg/mL. In addition, the “effect of iron on the inhibitory potential” value at IdeR [3] is “no effect”. Further, the “mode of inhibition” value on IdeR [2] is “competing with DNA”.
Consider `CC(NCc1c(O)ccc2ccc(=O)oc12)C(=O)O` (stereo not shown) [Compound I-39], for which the IC50 was 53.9 µM on IdeR [1] (setting [10]) and 54 µM on IdeR [1] (setting [11]). For the same molecule, the “mode of inhibition” value on IdeR [2] is “competing with DNA”.
For the molecule `O=S(=O)(O)c1ccc(O)c(N=Nc2c(O)ccc3ccccc23)c1` [Compound I-42, Benzene sulfonic acid,4-hydroxy-3-[(2-hydroxy-1-naphthalenyl)azo]-monosodium salt], the IC50 at IdeR [1] (setting [10]) is ≤ 72.6 µM and 2.9 µM; on IdeR [1] (setting [11]), 2.72 µM. The “effect of iron on the inhibitory potential” value on IdeR [3] is recorded as “no effect”. Further, at IdeR [2], the “mode of inhibition” value was “competing with DNA”.
Turning to `Cc1ccc(S(=O)(=O)C2CC(=O)N(c3ccc(F)c(Cl)c3)C2=O)cc1` (stereo not shown) [Compound I-108, 1-(3-chloro-4-fluorophenyl)-3-[(4-methylphenyl)sulfonyl]pyrrolidine-2,5-dione], the “growth” value in [4] (at 150 μg/ml and 125 μg/ml, infected THP-1, 5 days) is given as “only a few pin pointed colonies; also recorded: pin point colonies; also recorded: able to limit the growth of intracellular bacteria”; in data set [4] (at lower concentrations (100 to 25 μg/ml), infected THP-1, 5 days) it was “prominent growth of bacilli”. In addition, the “MIC90 of compounds against M. tuberculosis” value with M. tuberculosis turned out to be 17.5 ± 3.06 µg/mL. In the data set with M. tuberculosis, the MIC90 came out at 17.5 µg/mL (≈ 45.8 µM). Moreover, the IC50 in data set [5] is over 200 µg/mL; in [6], 168 ± 5.6 µg/mL (≈ 439 µM); on IdeR [1] (setting [10]) it was 62.9 µM and 63.6 µM; on IdeR [1] (setting [11]) it was 63.6 µM; in data set [7], over 200 µg/mL; in data set [8], over 200 µg/mL. In addition, the “Inhibition in THP1 (IC50 in µg/ml)” value in data set [6] (1-200 µg/ml) was “slight toxicity”.

B1: mbtA-mbtB intergenic IdeR binding region oligo (dsDNA)
DNA 1: CCCTGTTAGCACAGGCTGCCCTAATTTTAGTG
DNA 2: CACTAAAATTAGGGCAGCCTGTGCTAACAGGG
As for B1, in the data set with IdeR [9], the binding result was “binds”.
